The values below come from patent US20260193180A1, “AUTOPHAGY INDUCING COMPOUNDS AND USES THEREOF” (SAMSARA THERAPEUTICS INC., priority 2022, published 2026).

Where a name gives a salt, the structure may show the parent alone. A value given as a limit tells only on which side of the number the result lay.

One assay relates to U2OS cell line stabling expressing RFP-eGFP-hLC3b. The assay is described as follows: Tandem reporter assay (autophagic flux), RFP-only puncta (autolysosomes). Type of assay: cell-based. Particulars: Homo sapiens, 0.5 μM, average of two runs, read-out: Activity (Autolysosome % DMSO activity). As for the experimental part:
Selected compounds of this invention were also assessed for their ability to stimulate autophagy using a U2OS cell line stabling expressing RFP-eGFP-hLC3b (a tandem reporter cell line). This assay is further described in WO 2023/089074.
LC3b is a protein found in the membrane of autophagosomes which has been used to generate genetic reporters of autophagy in cells. In these systems a tandem fusion of LC3b is engineered with two fluorescent proteins of different wavelengths: one which is acid sensitive (for example eGFP, which fluoresces green) and the other which is acid insensitive (for example RFP, which fluoresces red). Cells expressing RFP-eGFP-hLC3b can be examined using fluorescent microscopy: the autophagosomes present will fluoresce in both channels (either yellow in an overlay of both channels or puncta that are present in both the individual red and green channels) but the autolysosomes present will fluoresce in the RFP (red) channel only. Using a fluorescent microscope, the number of autophagosomes and autolysosomes can be counted, allowing for the monitoring of both the induction of autophagy (total puncta count) and the rate of autophagic flux (ratio of red-only to red-and-green puncta). The influence of small molecules on autophagy induction and flux can be assessed using this system by comparison to a non-treated control.
Representative Procedure: Human osteosarcoma U20S cells stably expressing RFP-eGFP-hLC3b were seeded (10,000 cells/well) into a 96-well glass-bottom plate (Cell Carrier Ultra, Perkin Elmer) in DMEM Glutamax media (Gibco) supplemented with 10% Fetal Bovine Serum (FBS) and antibiotics (100 μg/ml penicillin, 100 μg/ml streptomycin, Invitrogen), then incubated overnight in a humified atmosphere at 37° C. and 5% CO2. The cells were then treated with the compounds of interest, dissolved in DMSO, in a duplicated 5- or 10-point dose-response. 8 wells were treated with an equivalent volume of DMSO, 4 with 0.3 μM torin-1 as a positive control (MCE) and 4 wells with 0.4 μM torin-1 plus 0.2 μM bafilomycin (MCE) as a control for flux inhibition. The cells were returned to the incubator and the treatment continued for 24 hours. After treatment, the media was aspirated off and the cells fixed with a solution of 4% formaldehyde+1% glutaraldehyde (Sigma) in dPBS (plus magnesium and calcium, Gibco). Fixation was allowed to proceed for 15 minutes at room temperature then the fixative solution discarded and replaced with PBS (Gibco) plus Hoescht 33342 (1 μg/ml, Sigma). After 30 minutes the plates were imaged on an Opera Phenix confocal microscope (Perkin-Elmer) using a 40× water objective, collecting using DAPI, mCherry and GFP channels. Cells were detected based upon the staining of their nuclei with DAPI using the Harmony image analysis software (Perkin-Elmer) and the number of autophagosomes (GFP and RFP puncta) and autolysosomes (RFP only puncta) per cell were counted using the spot picking function within the software.
A general note: In a reporter assay the amount or activity of a reporter protein is the signal.
For the compound `COCCOc1c(Cl)cc(CCN2CCC[C@H](N)C2)cc1Cl` [Compound 72, (S)-1-(3,5-dichloro-4-(2-methoxyethoxy)phenethyl)piperidin-3-amine hydrochloride], the activity at 0.5 µM was 150 to 200%.
Take `COCCOc1c(Cl)cc(CCN2CCC[C@@H](N)C2)cc1Cl` [Compound 76, (R)-1-(3,5-dichloro-4-(2-methoxyethoxy)phenethyl)piperidin-3-amine hydrochloride]: the activity at 0.5 µM lay within 150 to 200%.
On to `CCOc1ccc(CN2CCC[C@H](N)C2)cc1Cl` [Compound 92, (S)-1-[(3-chloro-4-ethoxyphenyl)methyl]-3-piperidylamine hydrochloride], for which the activity at 0.5 µM was in the range of 150 to 200%.

The assay is the same for the next values; noted with them: Homo sapiens, 0.75 μM, one run, read-out: Activity (Autolysosome % DMSO activity).
In the case of `CCOc1c(Cl)cc(CN2CC[C@@H](CN)C2)cc1Cl` [Compound 70, (S)-(1-(3,5-dichloro-4-ethoxybenzyl)pyrrolidin-3-yl)methanamine hydrochloride], the activity at 0.75 µM was in the range of 150 to 200%.

The same assay, now with this note: Homo sapiens, 0.833 μM, average of two runs, read-out: Activity (Autolysosome % DMSO activity).
In the case of `CCOc1ccc(CCN2CCC(N)CC2)cc1Cl` [Compound 71, 1-(3-chloro-4-ethoxyphenethyl)piperidin-4-amine hydrochloride], the activity at 0.833 µM was 150 to 200%.

Staying with this assay, now noted: Homo sapiens, 1.25 μM, average of two runs, read-out: Activity (Autolysosome % DMSO activity).
On to `N[C@@H]1CCN(Cc2cc(Cl)c(OCC3CC3)c(Cl)c2)C1` [Compound 73, (R)-1-(3,5-dichloro-4-(cyclopropylmethoxy)benzyl)pyrrolidin-3-amine hydrochloride], for which the activity at 1.25 µM fell in the range of 250 to 300%.
Still for that read-out and setting: for `N[C@H]1CCCN(CCc2cc(Cl)c(OCC3CC3)c(Cl)c2)C1` [Compound 74, (S)-1-(3,5-dichloro-4-(cyclopropylmethoxy)phenethyl)piperidin-3-amine hydrochloride] the value was > 300%.
Regarding `CCOc1ccc(CN2CCC(N)CC2)cc1Cl` [Compound 75, 1-(3-chloro-4-ethoxybenzyl)piperidin-4-amine hydrochloride], the activity at 1.25 µM fell in the range of 200 to 250%.
For `N[C@H]1CCN(Cc2cc(Cl)c(OCC3CC3)c(Cl)c2)C1` [Compound 77, (S)-1-(3,5-dichloro-4-(cyclopropylmethoxy)benzyl)pyrrolidin-3-amine hydrochloride], the activity at 1.25 µM is 250 to 300%.
For the compound `N[C@@H]1CCCN(CCc2cc(Cl)c(OCC3CC3)c(Cl)c2)C1` [Compound 78, (R)-1-(3,5-dichloro-4-(cyclopropylmethoxy)phenethyl)piperidin-3-amine hydrochloride], the activity at 1.25 µM was 200 to 250%.
With `N[C@H]1CCCN(CCc2ccc(OCC3CC3)c(Cl)c2)C1` [Compound 79, (S)-1-(3-chloro-4-(cyclopropylmethoxy)phenethyl)piperidin-3-amine formate salt], the activity at 1.25 µM was 250 to 300%.
As to `N[C@@H]1CCCN(CCc2ccc(OCC3CC3)c(Cl)c2)C1` [Compound 80, (R)-1-(3-chloro-4-(cyclopropylmethoxy)phenethyl)piperidin-3-amine formate salt], the activity at 1.25 µM was in the range of 250 to 300%.
As for `NC1CCN(Cc2ccc(OCC3CC3)c(Cl)c2)CC1` [Compound 81, 1-(3-chloro-4-(cyclopropylmethoxy)benzyl)piperidin-4-amine hydrochloride], the activity at 1.25 µM lay within 150 to 200%.
For the compound `CCOc1ccc(C#N)cc1CCN1CCC[C@H](N)C1` [Compound 83, (S)-3-(2-(3-aminopiperidin-1-yl)ethyl)-4-ethoxybenzonitrile hydrochloride], the activity at 1.25 µM was 200 to 250%.
As for `CCOc1ccc(C#N)cc1CCN1CCC[C@@H](N)C1` [Compound 84, (R)-3-(2-(3-aminopiperidin-1-yl)ethyl)-4-ethoxy benzonitrile hydrochloride], the activity at 1.25 µM lay in the range of 200 to 250%.
Consider `CCOc1ccc(C#N)cc1CCN1CC[C@H](N)C1` [Compound 86, (S)-3-(2-(3-aminopyrrolidin-1-yl)ethyl)-4-ethoxy benzonitrile hydrochloride], for which the activity at 1.25 µM was in the range of 150 to 200%.
As to `CCOc1ccc(C#N)cc1CCN1CC[C@@H](N)C1` [Compound 87, 3-{2-[(R)-3-amino-1-pyrrolidinyl]ethyl}-4-ethoxybenzonitrile hydrochloride], the activity at 1.25 µM was in the range of 150 to 200%.
As for `CCOc1ccc(CCN2CC[C@@H](N)C2)cc1F` [Compound 88, (R)-1-[2-(4-ethoxy-3-fluorophenyl)ethyl]-3-pyrrolidinylamine hydrochloride], the activity at 1.25 µM was in the range of 150 to 200%.
For the compound `COCCOc1ccc(CCN2CCC[C@@H](N)C2)cc1Cl` [Compound 89, (R)-1-{2-[3-chloro-4-(2-methoxyethoxy)phenyl]ethyl}-3-piperidylamine hydrochloride], the activity at 1.25 µM was in the range of 150 to 200%.
In the case of `CCOc1c(Cl)cc(CN2CCC(N)CC2)cc1Cl` [Compound 90, 1-[(3,5-Dichloro-4-ethoxyphenyl)methyl]-4-piperidylamine hydrochloride], the activity at 1.25 µM lay in the range of 200 to 250%.
Consider `CCOc1ccc(CN2CCC[C@@H](N)C2)cc1Cl` [Compound 93, (R)-1-[(3-chloro-4-ethoxyphenyl)methyl]-3-piperidylamine hydrochloride], for which the activity at 1.25 µM is 150 to 200%.
For `COCCOc1c(Cl)cc(CN2CCC(N)CC2)cc1Cl` [Compound 94, 1-{[3,5-dichloro-4-(2-methoxyethoxy)phenyl]methyl}-4-piperidylamine hydrochloride], the activity at 1.25 µM lay within 150 to 200%.
Regarding `COCCOc1ccc(CN2CCC(N)CC2)cc1Cl` [Compound 95, 1-{[3-chloro-4-(2-methoxyethoxy)phenyl]methyl}-4-piperidylamine hydrochloride], the activity at 1.25 µM was 200 to 250%.
In the case of `N[C@H]1CCCN(Cc2cc(Cl)c(OCC3CC3)c(Cl)c2)C1` [Compound 96, (S)-1-{[3,5-dichloro-4-(cyclopropylmethoxy)phenyl]methyl}-3-piperidylamine hydrochloride], the activity at 1.25 µM fell in the range of 200 to 250%.
Turning to `N[C@@H]1CCCN(Cc2cc(Cl)c(OCC3CC3)c(Cl)c2)C1` [Compound 97, (R)-1-{[3,5-dichloro-4-(cyclopropylmethoxy)phenyl]methyl}-3-piperidylamine hydrochloride], the activity at 1.25 µM was in the range of 150 to 200%.
Still for that read-out and setting: the same measure for `NC1CCN(Cc2cc(Cl)c(OCC3CC3)c(Cl)c2)CC1` [Compound 98, 1-{[3,5-dichloro-4-(cyclopropylmethoxy)phenyl]methyl}-4-piperidylamine hydrochloride]: 150 to 200%.
`N[C@@H]1CCN(CCc2ccc(OCC3CC3)c(Cl)c2)C1` [Compound 99, (R)-1-{2-[3-chloro-4-(cyclopropylmethoxy)phenyl]ethyl}-3-pyrrolidinylamine hydrochloride]: the activity at 1.25 µM lay within 150 to 200%.
For the compound `N[C@H]1CCN(CCc2ccc(OCC3CC3)c(Cl)c2)C1` [Compound 100, (S)-1-{2-[3-chloro-4-(cyclopropylmethoxy)phenyl]ethyl}-3-pyrrolidinylamine hydrochloride], the activity at 1.25 µM lay within 150 to 200%.

Staying with this assay, now noted: Homo sapiens, 1.25 μM, one run, read-out: Activity (Autolysosome % DMSO activity).
With `CCOc1c(Cl)cc(CN2CC[C@H](CN)C2)cc1C#N` [Compound 82, (R)-5-((3-(aminomethyl)pyrrolidin-1-yl)methyl)-3-chloro-2-ethoxybenzonitrile hydrochloride], the activity at 1.25 µM lay within 150 to 200%.
With `CCOc1ccc(CCN2CC[C@H](N)C2)cc1C#N` [Compound 85, (S)-5-(2-(3-aminopyrrolidin-1-yl)ethyl)-2-ethoxybenzonitrile hydrochloride], the activity at 1.25 µM is 150 to 200%.
On the same count and under the same terms, for `NC1CCN(CCc2cc(Cl)c(OCC3CC3)c(Cl)c2)CC1` [Compound 91, 1-{2-[3,5-Dichloro-4-(cyclopropylmethoxy)phenyl]ethyl}-4-piperidylamine hydrochloride] the value was 150 to 200%.
